According to PMC5472428 (Drug Design, Development and Therapy, 2017):

Experiments:
[1] = poor aqueous solubility and good permeability; cited from earlier work
[2] = Pharmacokinetic studies in rabbits; type: in vivo; details: Albino, rabbit, plasma, po, 1 mg/kg

CC(C)(C)NC(=O)[C@H]1CC[C@H]2[C@@H]3CC[C@H]4NC(=O)C=C[C@]4(C)[C@H]3CC[C@]12C [FIN, (5alpha,17beta)-(1,1-dimethylethyl)-3-oxo-4-azaandrost-1-ene-17-carboxamide]
Biopharmaceutics Classification System (BCS) class [1]: Class II | AUC [2]: 0.782 ± 0.0937 µg·h/mL | Cmax [2]: 0.0393 ± 0.00992 µg/mL | Tmax [2]: 3.5 ± 0.37 h | half-life [2]: 11 ± 2.17 h | k el [2]: 1.72e-05 s⁻¹
